# From PubChem BioAssay AID1996
# Details: buffer; pH 7.4; 200.0 µM
row,Compound,solubility kinetic [µg/mL]
1,CC(=O)Nc1cccc(C(=O)OCC(=O)NC(=O)c2ccccc2)c1,3.5
2,CN(Cc1ccc(N(C)C)cc1)C(=O)c1cc2ccccc2o1,31.5
3,Cl.Nc1nc2nc[nH]c2c(=O)[nH]1,21.5
4,COc1cccc(OCCn2cc(C=O)c3ccccc32)c1,12.2
5,OC1C2CN3CN(C2)CC1(c1ccccc1)C3 (stereo not drawn),> 34.5
6,Cc1ccc(C(=O)Nc2cccc(C(=O)NC3CCCCC3)c2)cc1,< 0.4
7,O=C1/C(=C/c2ccccn2)SC(=S)N1CCc1ccccc1,0.4
8,CCOc1ccccc1-n1cnc(C#N)c1N,> 34.2
9,O=C(c1ncc[nH]1)c1ccccc1Cl,> 31
10,O=S(=O)(Nc1ccccn1)c1ccc(Br)cc1,37.9
11,CC(=O)Nc1ccc(NS(=O)(=O)c2ccc(Cl)s2)cc1,> 49.6
12,Cc1nnc(Nc2ccc(C(=O)O)cc2)[nH]c1=O,> 36.9
13,CC(=O)Nc1ccc(OCC(O)Cn2nc(C)c(C)c2C)cc1 (stereo not drawn),> 47.6
14,CNC(=S)NCc1ccc2[nH]c(C)cc2c1,> 35
15,CCN(C(=O)CSc1nc(C)cc(=O)[nH]1)C1CCCCC1,> 46.4
16,CCN(CC)C(=O)CSC(Nc1ccc(F)cc1)=C(C#N)C#N,> 49.9
17,O=C(Nc1ccc(Cl)c(Cl)c1)N1CCOCC1,> 41.3
18,CC(C)Oc1ccccc1Cn1c(=O)oc2ccccc21,9
19,CCOC(=O)c1sc(NC(=O)CCN2C(=O)C3CCCCC3C2=O)cc1C (stereo not drawn),15
20,CNc1snc(C)c1C(=O)OC(C)C(=O)Nc1ccc(F)cc1 (stereo not drawn),> 50.6
21,O=C(c1ccc([N+](=O)[O-])cc1)N1C=CC(C(F)(F)F)=NCC1,> 47
22,Cc1cc(C(=O)NCCc2ccc(S(N)(=O)=O)cc2)c(C)o1,> 48.4
23,Cc1ccc(NC(=O)CN2CCOCC2)cc1S(=O)(=O)N1CCCCC1,> 57.2
24,CC1(C)C(C(=O)N2CCN(c3ccc(Cl)cc3)CC2)C1(C)C,0.5
25,Cc1ccc2cccc(OCc3ccc(F)cc3)c2n1,6

row,Compound,solubility kinetic [µg/mL]
1,COc1ccc(CNc2ccc3c(c2)CCC3)cc1Br,5.6
2,CN(C)Cc1ccccc1CCc1ccccc1.Cl,23.9
3,O=C(NCc1ccccc1)c1c[nH]c2ccc(F)cc2c1=O,9.1
4,O=C(Nc1ccc(Br)cn1)c1cccc(S(=O)(=O)N2CCCC2)c1,5.7
5,O=C(COC(=O)CCN1C(=O)C2CC=CCC2C1=O)Nc1ccc([N+](=O)[O-])cc1 (stereo not drawn),> 60.2
6,CN(CCC#N)Cc1cc(=O)oc2ccc3ccccc3c12,33.5
7,COc1ccc(OCC(=O)NCc2ccc(Cl)cc2)cc1,3.3
8,Cc1cccc(NC(=O)C2CC(=O)N(Cc3ccccc3)C2)n1 (stereo not drawn),> 46.4
9,COC(=O)c1ccc(COc2ccc(C#N)cc2)o1,7
10,O=C(NCCNC(=O)c1cc(Cl)ccc1Cl)c1cnccn1,> 50.9
11,COc1ccc(N2CCN(c3cc(C)c4cccc(C)c4n3)CC2)cc1,< 0.2
12,CN(C)CCNC(=S)Nc1ccc(F)c(F)c1F,> 41.6
13,Cn1c(=O)c2[nH]cnc2n(C)c1=O,> 27
14,O=C(c1cccs1)c1c[nH]cc1-c1ccccc1,4.4
15,Cc1ccc(NC(=S)Nc2cccc3ccccc23)cc1,1.5
16,O=C1CSC(c2cccnc2)N1c1ccc(Cl)cc1 (stereo not drawn),> 43.6
17,COc1ccc(-c2c(C(=O)O)c(C(=O)O)c3n2CCC3)cc1,> 45.2
18,Cc1[nH]c(=O)c(Cc2ccccc2)c(O)c1C#N,> 36
19,Cl.Clc1ccc(CN2CCNCC2)cc1,22.6
20,Cn1cc(S(=O)(=O)NCc2ccc3c(c2)OCO3)c(C(F)(F)F)n1,> 54.5
21,O=[N+]([O-])c1ccc(Nc2cccc(F)c2)nc1,13.4
22,O=C(CN1C(=O)COc2ccccc21)Nc1ccccc1F,21.4
23,S=C(NCCc1cccc(Cl)c1)NC1CCCCC1,10.5
24,Nc1ccc(-c2nc3ccccc3o2)cc1,20.8
25,NS(=O)(=O)c1ccc(CCNC(=S)NC(=O)c2ccccc2Br)cc1,3.3

row,Compound,solubility kinetic [µg/mL]
1,COc1ccccc1NS(=O)(=O)c1ccc(N2CCOCC2)c(N)c1,5.1
2,CN(c1ccccc1)S(=O)(=O)c1ccc(NC(=O)C2CC2)cc1,2.3
3,C[C@H](NC(=O)c1ccc(C(C)(C)C)cc1)C(=O)N1CCOCC1,> 47.8
4,O=C(CS(=O)(=O)Cc1ccccc1)NCc1ccccc1Cl,> 50.7
5,COc1ccc(NC(=O)Cn2c([N+](=O)[O-])cnc2C)cc1Cl,2
6,O=C(NCCCCNC(=O)c1ccc(F)cc1)c1ccc(F)cc1,3.9
7,O=C(COC(=O)c1cnccn1)Nc1cccc2ccccc12,> 46.1
8,O=C(O)CC(C(=O)Nc1ccc(Cl)cc1)N1CCCCCC1 (stereo not drawn),> 48.7
9,C[C@H](NC(=O)Cc1cccc2ccccc12)C(=O)N1CCOCC1,> 49
10,COc1ccccc1NS(=O)(=O)c1cc(NC(=O)c2ccccc2[N+](=O)[O-])ccc1N1CCOCC1,4.4
11,CN(C)Cc1c(-c2ccc(Cl)cc2)nc2ccccn12,40.4
12,COc1ccc(CNC(=O)COC(=O)c2cccn2C)cc1,> 45.3
13,CCC(=O)c1ccc(OCC(=O)NC2(C#N)CCCCC2)cc1,45.4
14,Br.CC(=O)c1cccc(Nc2nc(-c3ccccc3)cs2)c1,2.1
15,COC(=O)c1ccc(OC)c(Cn2c(=O)n(C)c(=O)c3ccccc32)c1,2.2
16,O=C(O)Cc1ccc(NC(=O)Nc2cccc3ccccc23)cc1,45.1
17,COc1ccc(OC)c(NC(=O)c2nc(-c3ccccc3)oc2C)c1,3.1
18,Cn1cccc1C(=O)OCc1cc(-c2ccco2)on1,13.8
19,Oc1ccc(-c2csc(Nc3ccccn3)n2)cc1,5.3
20,COc1ccc(S(=O)(=O)N2CCc3ccccc3C2)cc1,0.7
21,CCc1ccc(C(=O)CSc2nc(N)cc(=O)[nH]2)cc1,14.2
22,CCOc1ccccc1C(=O)NCC(=O)NCCCSc1ccccc1,2.5
23,Cc1nc(-c2noc(-c3ccc(Cl)cc3)n2)c(C(F)(F)F)o1,< 0.2
24,Cc1ccc(S(=O)(=O)N2CCN(C)CC2)cc1C,31.3
25,Cc1ccc(CNC(=O)c2ccc(C)s2)cc1,19.2

row,Compound,solubility kinetic [µg/mL]
1,CC(C)(C)C(O)CN1CCCC1.Cl (stereo not drawn),> 31.2
2,O=C(CN1CCCC1)Nc1ccc([N+](=O)[O-])cc1,> 37.4
3,COc1cccc(NC(=S)N2CCCN(Cc3ccc(F)cc3)C2)c1,49.8
4,Cc1ccc(C)c(CSCc2nc3ccccc3[nH]2)c1,20.6
5,Cc1cc(C)c(S(=O)(=O)N2CCc3ccccc32)c(C)c1,< 0.6
6,CCOC(=O)c1c(C)nsc1NC(=O)c1ccco1,1.6
7,Cl.c1cnc(N2CCNCC2)nc1,> 35.6
8,COc1ccc(N2CCN(C(=O)Cn3cncn3)CC2)cc1,> 45.2
9,Cc1cc2nc(-c3ccc(=O)[nH]c3)n(Cc3ccccc3)c2cc1C,43.4
10,Cc1onc(-c2c(F)cccc2Cl)c1C(=O)NCc1ccccc1,49.7
11,COc1ccccc1NC(=O)[C@@H]1CCCN1S(=O)(=O)c1ccc(Cl)cc1,32.4
12,COc1ccc(S(=O)(=O)N2CCCC2)cc1Br,33.9
13,O=C(/C=C/c1ccccc1Cl)Nc1ccccc1,0.6
14,O=S(=O)(c1ccc(F)cc1)N1CCc2ccccc2C1,1.2
15,NC(=O)c1ccccc1NC(=O)CN1CCCCCC1,> 41.3
16,Cc1ccc(-c2ccc(C(=O)NCCCNC(=O)c3cnccn3)o2)cc1Cl,6.3
17,CCCOc1ccc(/C=C/C(=O)N2CCOCC2)cc1,> 41.3
18,Cc1ccc(-c2cnc3n2CCCCC3)cc1,> 33.9
19,CC(=O)c1ccc(NC(=O)COC(=O)Cn2cnc3ccccc32)cc1,> 52.7
20,CC(C)[C@H](NC(=O)c1ccccc1)C(=O)O,> 33.2
21,CNC(=O)COC(=O)/C=C/c1cccc(F)c1,> 35.6
22,O=C(NCc1ccc(Cl)cc1)Nc1ccc(F)cc1,1.3
23,CCC(C)(C)NC(=O)C1CCCN1C(=O)NC1CCCCC1 (stereo not drawn),> 46.4
24,OCCC1CN(Cc2ccon2)CCN1CCc1ccccc1 (stereo not drawn),42.3
25,COc1nc(C)cc(C)c1S(=O)(=O)c1ccc(Cl)cc1,1.7

row,Compound,solubility kinetic [µg/mL]
1,CCc1c(O)nc(SC2CC(=O)N(c3ccc(F)c(Cl)c3)C2=O)[nH]c1=O (stereo not drawn),55.7
2,CC(=O)c1cccc(-n2c(CCC(=O)O)ccc2-c2ccc(C)cc2)c1,> 52.1
3,COc1ccc(C2NC(c3ccc(OC)cc3)C(C)C(=O)C2C)cc1 (stereo not drawn),12.2
4,COc1ccccc1OCCn1c(SCC(N)=O)nc2ccccc21,45.4
5,CCc1sc(C(=O)N2CCCN(C)CC2)cc1Br,46.5
6,COc1cccc(C(=O)C(C#N)=C(SC)SC)c1,33.6
7,COc1ccc(CCN)cc1OC,24.8
8,O=C(CCOc1ccccc1)Nc1ccccc1F,37.4
9,CC1CN(C(=S)Nc2ccc(Br)cc2)CC(C)O1 (stereo not drawn),48.5
10,O=C(NCc1ccco1)c1ccc(-c2cccc(Cl)c2)o1,1.3
11,CN(C)/C=C/C(=O)c1cccc(C(F)(F)F)c1,> 36.5
12,COc1cccc(CNC(=O)N2CCN(c3ccccc3)CC2)c1,20.5
13,Cc1csc(NC(=O)c2cncc(Br)c2)n1,4.7
14,Clc1cc(Cl)cc(CN2CCSCC2)c1,4.5
15,Cc1ccsc1CN1CC(=O)N(c2c(C)cccc2C)C1=S,12.2
16,CC1CC(C)(C)NC(=S)N1CCC(=O)N1c2ccccc2CC1C (stereo not drawn),5.3
17,CCOC(=O)C(=CNc1ccc(C(F)(F)F)cc1)C(=O)OCC,2.7
18,COC(=O)CC1C(=O)NCCN1C(=S)Nc1ccc(F)cc1 (stereo not drawn),> 48.8
19,Cc1ccccc1NC(=S)NC1CCCC1,34.9
20,Cc1nc(NC(=S)NC(=O)c2ccco2)sc1C(=O)N(C)C,> 50.8
21,O=C(Nc1cccc(C(F)(F)F)c1)OC1CN2CCC1CC2 (stereo not drawn),> 47.1
22,N/C(=N\OC(=O)c1ccc(Cl)cc1Cl)c1ccncc1,16.5
23,Cc1ccc(C)c(N2CN(CCC3=CCCCC3)CNC2=S)c1,38.7
